For one test, the system named is barnyard grass. Briefly: Greenhouse test of weed control effect, combined action evaluated by Gowing method. The format is in vivo. The note with it: single component. The protocol:
(§1) Embodiment 1 The synergistic effects of the compound contained with component A and component B is conducted in greenhouse in the present invention, and the component A takes A-3, A-4 and A-5 compounds in the compound table 1 of the general formula I as examples.
(§2) The synergistic effects of the composition on the weeds is defined through greenhouse test.
(§3) A weed culture method is: respectively planting weed seeds of piemarker and barnyard grass quantitatively in a paper cup with a diameter of 7 cm and containing nutrient soil; after planting, covering soil, pressing and watering; and then culturing in a greenhouse. The grass weeds grow to 5-7 leaf stages; the broadleaf weeds grow to 6-8 leaf stages; pre-emergence and post-emergence treatment are conducted with three times repeats. The weeds are placed in the greenhouse after treatment when the leaf without water dried naturally in air, and cultured with normal method. According to the inhibited condition or dying condition of the weeds, after treatment 30 days, visual inspection of the control effect is conducted (see Table 2-Table 7).
(§4) A herbicide formulation preparing method: all test samples are technical dissolved by a mixed solvent of acetone and dimethylformyl (1:2, V/V) firstly; then 1‰ of Tween 80 water is used to prepare mother liquor of a certain concentration; and then processing solutions of different doses are prepared according to test schemes.
(§5) The present invention adopts a Gowing method for evaluating the combined action of the proposed composition.
(§6) X—the weed control effect when the dosage of the component A of the herbicide is P;
(§7) Y—the weed control effect when the dosage of the component B of the herbicide is Q;
(§8) E0—the theoretical control effect when the dosage of the component A of the herbicide is P+the theoretical control effect when the dosage of the component B of the herbicide is Q;
(§9) E—the measured control effect after the component A of the herbicide and the component B of the herbicide are mixed in the above proportion.
(§10) When E−E0>10%, the synergy is achieved; when E−E0<−10%, antagonism is achieved; when the value of E−E0 is between ±10%, the addition effect is achieved.

Another test has as its system piemarker. Described as above. The format is in vivo. To be noted: single component. The protocol:
as §1, §2, §3, §4, §5, §6, §7, §8, §9, §10

Setting [1] is: dose 7.5 ga.i./hm^2, visual inspection 30 days after treatment.
The mark [2] stands for this setting: dose 30 ga.i./hm^2, visual inspection 30 days after treatment.
The mark [3] stands for this setting: dose 120 ga.i./hm^2, visual inspection 30 days after treatment.

Each structure is given as a SMILES string. Several values for one entry are separate records, joined by “and”; a condition that tells them apart may be missing. Equal entries are not always repeated.

Data on one compound can be found in patent publication US20220087263A1, “HERBICIDE COMPOSITION AND APPLICATION THEREOF” (SHENYANG SINOCHEM AGROCHEMICALS R&D CO., LTD., priority 2018, published 2022).

Turning to `c1cc[n+]2c(c1)-c1cccc[n+]1CC2` [Diquat, diquat], the “Measured Value E (weed control effect)” value with barnyard grass (setting [1]) is 30% and 20%; in the test with barnyard grass (setting [2]), 50% and 45% and 40%; in the test on barnyard grass (setting [3]), 65% and 60% and 55%; with piemarker (setting [1]), 20% and 15% and 30%; with piemarker (setting [2]) it was 50% and 55% and 45%; in the test with piemarker (setting [3]), 60% and 65% and 55%.
